Laboratory results published in patent US20040013631A1, “Skin care cosmetic compositions containing carboxyalkylates of branched alcohols and/or alkoxylates thereof” (Unilever Home & Personal Care USA, Division of Conopco, priority 2002, published 2004).
Where two headings read alike, the source gives them in different places. Marks after values point to notes of the source that are not given here.

How the values were obtained:
[1] = test system: human sebocytes; experiment: Inhibition of sebocyte lipogenesis (14C-acetate label remaining in sebocytes); type: cell-based; details: for IC50: read-out: IC 50 (concentration which provides a 50% sebum suppression relative to the control)
[2] = Light absorbency (color) at 340-500 nm, Spectramax 340 spectrophotometer; type: physicochemical; details: from absorbency values at 340-500 nm
[3] = Homo sapiens, 20 hour incubation, 96 well plate
[4] = 20 hour incubation, 96 well plate

CC(C)CCCC(C)CCCC(C)CCO (centres unmarked) [Compound 6, 3,7,11-trimethyl 1-dodecanol]
IC50 [1, 3]: > 100 µM

CC(C)CCCC(C)CCCC(C)CCOCCC(=O)O (centres unmarked) [Compound 7, 3,7,11-trimethyl 1-dodecanol carboxyethylate]
IC50 [1, 3]: 10 µM | activity as sebum suppressant relative to the branched alcohol from which it is derived ([1]; ratio of IC50 values of Table 3): at least 10 times

O=S1(=O)OC(c2ccc(O)cc2)(c2ccc(O)cc2)c2ccccc21 [Phenol Red]
activity at 100 µM ([1]; Homo sapiens, 20 h, read-out: radioactive label remaining in the sebocytes, % of Control): 46.3%

C13 isoalcohol carboxyethylate (TDCE) [Compound 1]
color compared with TDCM [2]: lighter in color | radioactive label remaining in the sebocytes, % of Control ([1]; 1 µM): 48.7* % | radioactive label remaining in the sebocytes, % of Control ([1]; 10 µM): 34.6* % | radioactive label remaining in the sebocytes, % of Control ([1]; 100 µM): 11.9* % | IC50 [1, 4]: 5 µM

C13 isoalcohol glycerol [Compound 5]
IC50 [1, 4]: > 100 µM

C13 isoalcohol propionitrile [Compound 2]
IC50 [1, 4]: > 100 µM

Iso-tridecyl carboxymethylate [TDCM]
radioactive label remaining in the sebocytes, % of Control ([1]; 1 μM test agent, 20 hour incubation, 96 well plate, lower = greater inhibition of lipogenesis): 84.8* % | radioactive label remaining in the sebocytes, % of Control ([1]; 10 μM test agent, 20 hour incubation, 96 well plate, lower = greater inhibition of lipogenesis): 43.4* % | radioactive label remaining in the sebocytes, % of Control ([1]; 100 μM test agent, 20 hour incubation, 96 well plate, lower = greater inhibition of lipogenesis): 22.8* %
